Assays:
[1] = Metabolic stability in HLMs, CYP reaction; type: in vitro ADME, human; conditions: human, human liver microsomes (CYP reaction), pH 7.4, HLMs, CYP reaction
Protocol: (§1) Various microsomes including HLMs, HKMs, HIMs, RLMs, RKMs, MLMs and MKMs were involved in CYP and UGT reactions of N-hydap. A typical CYP incubation mixture included 0.5 mg/mL microsomes protein, 3.3 mM glucose-6-phosphate, 3.3 mM MgCl2, 0.4 U/mL glucose-6-phosphate dehydrogenase, and N-hydap (1, 2.5, or 10 μM) in the 50 mM potassium phosphate buffer (KPI, pH 7.4). The incubation mixture was preincubated at 37 °C for 5 min, and the reaction was started by adding NADP to form a NADPH-regenerating system. Simultaneously, the classic UGT reaction system consisted of 50 mM KPI, 5 mM MgCl2, 0.5 mg/mL microsomes, 0.125 mg/mL alamethicin, and 5.25 mg/mL saccharolactone. The reaction was initiated after supplying UDPGA. The CYP and UGT mixtures were incubated at 37 °C in a shaking water bath (80 rpm) for 1.5 h to enhance metabolite formation. To terminate the reaction, an ice-cold solution of Tes (50 ng/mL, dissolved in methanol and used as an internal standard) was added to half of the mixture volume. The mixture was vortexed for 30 s and then centrifuged at 13,000 rpm for 15 min to eliminate any precipitated protein. The resulting supernatant was transferred to autosampler vials, and 5 μL was injected into the LC–MS system. All reactions were conducted in triplicate.
(§2) The identical concentration of HLMs was utilized for both the CYP reaction and UGT reaction. At predetermined time intervals of 0, 15, 30, and 60 min, 100 µL samples were taken from the reaction volumes. To halt the reaction, 50 µL of 50 ng/mL Tes was added. Samples were analyzed using LC–MS to compare the remaining level of N-hydap between the CYP reaction and UGT reaction. T1/2 and CLint (in vivo) (mL/min/kg) were calculated as reported previously:
(§3) T1/2=0.693/k, where k represents the slope of the line derived from plotting the natural logarithm of the percentage (Ln %) of N-hydap remaining in the reaction mixture against the incubation time (minutes).
(§4) CLintinvivo=0.693/invitroT1/2×mLincubation/mgmicrosomes×45mgmicrosomes/gliver×20gliver/kgbodyweight.

HLMs (CYP reaction) = assay: Metabolic stability in HLMs, CYP reaction; type: in vitro ADME, human; conditions: for remaining percentage of N-hydap: HLMs, CYP reaction
Protocol: as §1, §2, §3, §4

RKMs = assay: Kinetics of N-hydap glucuronidation in RKMs; type: in vitro ADME, rat; conditions: RKM
Protocol: (§5) In this study, the rats were executed by drawing blood from the abdominal aorta and mice were sacrificed with cervical dislocation before the liver and kidneys were excised. The liver and kidneys were removed, and washed with chilled cleansing solution (contains 8 mM KH2PO4, 5.6 mM EDTA·K2·2H2O, 1 mM DTT and 229.6 μM PMSF), homogenized in a tissue homogenate buffer with a pH of 7.4, (consisting of […], 8 mM K2HPO4, 250 mM sucrose, 1 mM EDTA·K2·2H2O and 229.6 μM PMSF). Subsequently, the homogenate was centrifuged at 10,400 rpm at 4 °C for 15 min, and the supernatant was then centrifuged at 35,000 rpm at 4 °C for 60 min. A 250 mM sucrose buffer was added to the pellet to reconstitute and the resuspension was stored at − 80 °C until use. Microsome protein concentrations were measured by Omni-Easy™ Instant BCA Protein Assay Kit.
(§6) Various microsomes including HLMs, HKMs, HIMs, RLMs, RKMs, MLMs and MKMs were involved in CYP and UGT reactions of N-hydap. […]
(§7) The substrate concentrations used for HLMs were 0.05, 0.5, 2, 2.5, 5, 10, 25, 50, and 100 μM. […] The rates of N-hydap-G by enzymes were expressed as nmol/mg/min, representing the amount of metabolites formed per minute per milligram of protein. Kinetic parameters were determined by analyzing the Eadie–Hofstee plots. […]

MLMs = assay: Kinetics of N-hydap glucuronidation in MLMs; type: in vitro ADME, mouse; conditions: MLM
Protocol: as §5, §6, §7

With `CC1CCC2C(C=CC(C)C2C(=O)c2c(O)c(C3(O)CCC(O)C4OC43)cn(O)c2=O)C1` (stereo not shown) [N-hydap, N-Hydroxyapiosporamide] the half-life [1] was 2.98 h, the CLint scaled ([1]; extrapolated from in vitro T1/2, read-out: CLint (in vivo)) was 34.9 mL/min/kg and the “remaining percentage of N-hydap” value (HLMs (CYP reaction); 15 min) was 64.43%. The “remaining percentage of N-hydap” value (HLMs (CYP reaction); 30 min) was 58.02%, the “eliminated by CYPs” value (HLMs (CYP reaction); various microsomes, after 1 h) was “about 50%” and the Km (RKMs) was 125 µM. It also gave a Km (MLMs) of 263 µM.
